According to a melting point compilation (Tetko et al.; mined from patent text by program, amines drawn as free bases though some values may be those of a salt):

Row | SMILES | melting point
1 | Cc1ccc(-c2cn(C)cc(-c3ccc(Cl)c(Cl)c3)c2=O)cc1C | 150 to 152 °C
2 | Cc1nn(-c2ccc(C(F)(F)F)cn2)cc1COc1cc(C=O)n(C)n1 | 130 to 131 °C
3 | OCc1ccccc1CSc1ccccc1 | 64 to 65 °C
4 | O=S(=O)(Nc1cccc2cc(-c3ncc(CO)s3)[nH]c12)c1cccs1 | 209 to 210 °C
5 | OCCCN1CCN(C2=Nc3ccccc3Cn3c2cc2ccccc23)CC1 | 174 to 175 °C
6 | NCc1ccc2c(c1)ncn2-c1cccc(-c2cccnc2)c1 | 107 to 110 °C
7 | CCCCCCCCCC(CCCCCCCCC)N1C(=O)c2ccc3c4cccc5cccc(c6ccc(c2c36)C1=O)c54 | 143 to 144 °C
8 | CC(C)(C)OC(=O)N1CCC2(CC1)C(=O)N(CC(=O)O)CN2CC1CCCCC1 | 148 to 149 °C
9 | COc1cc(Cc2cnc(N)nc2N)cc(-c2ccc(O)cc2)c1OC | 233 °C
10 | Cc1cc(SC(C)C)c(NC(=O)CCCCCSc2nc3c(C)c(Cl)cc(C(C)C)c3o2)c(SC(C)C)n1 | 99 to 101 °C
11 | O=C1NC(=C(Br)c2ccccc2)C(=O)C1=NO | 158 °C
12 | COC(=O)c1ccc(OC)cc1NC(C)=O | 123 to 126 °C
13 | CCC(=O)Cc1ccc(C(=O)Nc2ccc3cc(CN4CCCC4)cnc3c2C)cc1 | 157 °C
14 | CC(=O)c1ccc(NS(C)(=O)=O)c(Oc2ccc(F)cc2F)c1 | 117 to 118 °C
15 | O=C(NC1CCC1)c1cc(Nc2nc(Cl)nc3ccoc23)[nH]n1 | 277 °C
16 | CCOC(=O)Cc1sc(Sc2ccnc(SC)n2)nc1C | 68 to 72 °C
17 | Cn1nnc(-c2ccc(C#CC3(O)CN4CCC3CC4)cc2)n1 (configuration not stated) | 228 to 230 °C
18 | CC(C)CCOC(=O)COc1cc(F)ccc1C(=S)NCc1cccc([N+](=O)[O-])c1 | 56 to 58 °C
19 | FC(F)(F)c1ccc2c(c1)ncn2-c1cccc(I)c1 | 86 to 87 °C
20 | CC[C@H](C)COc1ccc(O)cc1 | 44 to 45 °C
21 | Cc1nc[nH]c1CSCCNC(=NCCc1ccccc1)NC#N | 135 to 136 °C
22 | CSCc1ccc2ncnc(Nc3cccc(C)c3)c2c1 | 134 to 136 °C
23 | C#CCN(C(CCn1c(=O)[nH]c2ccccc2c1=O)C(=O)O)S(=O)(=O)c1ccc(Oc2ccccc2)cc1 (configuration not stated) | 194 to 195 °C
24 | CC(Nc1nc(Oc2cccc3[nH]c(=O)c(N)nc23)cc(-c2ccc(C(F)(F)F)cc2)n1)c1ccc(F)cc1 (configuration not stated) | 434 °C

Row | SMILES | melting point
25 | CCSCC#Cc1cc(F)c2ncc(C(=O)NCc3ccc(Cl)cc3)c(O)c2c1 | 232 to 233 °C
26 | NC1(C(=O)O)CC(O)C2C(C(=O)O)C21 (configuration not stated) | 78 to 80 °C
27 | CC1(C)COC(c2ccccc2-c2ccc(CO)cc2)=N1 | 97 to 100 °C
28 | Cc1c(-c2ccccc2)oc2c(CNC(=O)CCl)cccc2c1=O | 152 to 155 °C
29 | CC1(N)CN(c2cc3c(cc2F)c(=O)c(C(=O)O)cn3C2CC2)C1 | 293 to 295 °C
30 | CCC(C)(C)Nc1c(NCc2ccc(Cl)cc2Cl)c(=O)c1=O | 196 to 197 °C
31 | O=C1N(Cc2ccccc2)C(O)C2CSC(c3ccccc3)N12 (mixture of isomers) | 151 to 153 °C
32 | CCCCCCSCCSCCSc1nc2nc(C)cc(O)n2n1 | 119 to 121 °C
33 | COc1ccc(-n2nc(OC(C)C)cc2-c2ccc(OCCNC(N)=O)cc2)cn1 | 120 °C
34 | CCCCOC(=O)c1ccc2ccc(C)nc2c1O | 50 °C
35 | O=C1c2ccccc2-c2c1c1ccccc1c(=O)n2CCNS(=O)(=O)c1ccc(Br)cc1 | 260 to 263 °C
36 | Nc1ccc(C=CC=CC=CC=Cc2ccc(N)cc2)cc1 | 262 to 264 °C
37 | COc1cccc2cc(C)c(-c3ccccc3)nc12 | 105 °C
38 | N=C(N)N(C[C@H]1CC[C@H](C(=O)Nc2ccnc3[nH]ccc23)CC1)C(=O)OCc1ccccc1 | 160 to 162 °C
39 | Cc1nc(-c2cccs2)c2nc(-c3ccccc3)cc-2[nH]1 | 178 to 179 °C
40 | CCOC(=O)C(C(=O)C(C)C)C(CC(=O)C(C)C)c1ccc(F)cc1 (configuration not stated) | 57 to 60 °C
41 | CC(=O)N1CCCCc2ccc(C(=O)CCCl)cc21 | 106 to 107 °C
42 | C[C@H](C#Cc1ccc(Cc2cc3ccccc3s2)s1)N(O)C(N)=O | 157 to 159 °C
43 | CCOc1nc2c(N)nc(OCCc3ccccc3)nc2n1CC | 161 to 164 °C
44 | CSc1nc2c([nH]1)N(Cc1ccc(Cl)cc1)C1NCCN1C2=O (configuration not stated) | 296 to 297 °C
45 | Cn1c(OCc2ccccc2)noc1=O | 80 to 83 °C
46 | COc1ccc(S(=O)(=O)NC(C)(C)C(=O)NO)cc1 | 122 to 125 °C
47 | O=C(Nc1cc(S(=O)(=O)NCCO)sc1Cl)c1cnn2c(C(F)F)cc(-c3ccc(C(F)(F)F)cc3)nc12 | 209 °C
48 | CC(=O)C(=[N+]=[N-])C(=O)CCc1ccccc1 | 30 to 32 °C

Row | SMILES | melting point
49 | O=C(c1ccc(O)cc1)c1c(-c2ccccc2)sc2cc(O)ccc12 | 245 to 246 °C
50 | COCCn1cc(C2CCN(CCOc3ccccc3C(=O)O)CC2)c2ccccc21 | 139 to 140 °C
51 | CC(C)C(NC(=O)Nc1ccc(C(=O)NCC(=O)N(C)C)cc1)C(=O)N1CCCC1C(=O)NC(C(=O)C(F)(F)F)C(C)C (mixture of isomers) | 115 to 125 °C
52 | CN(CCCCCCCNC(=NCCCOc1cccc(CN2CCCCC2)c1)NC#N)CCN(Cc1ccc(F)cc1)c1ccccn1 | 96 to 98 °C
53 | c1ccc(Oc2ccc(C3(Cn4cncn4)OCCCO3)cc2)cc1 | 129 to 130 °C
54 | O=[N+]([O-])c1cn2c(n1)O[C@@H](COc1ccc(N3CCC(Nc4ccc(OCc5ccc(OC(F)(F)F)cc5)cc4)CC3)cc1)CC2 | 227 to 229 °C
55 | Cc1cc(CN(C(=O)CCl)c2c(C)cccc2C)on1 | 78 to 82 °C
56 | CSc1nn2c(N3C[C@@H](C)N[C@@H](C)C3)cc(C)nc2c1S(=O)(=O)c1ccccc1 | 220 to 221 °C
57 | CCNC(=O)c1ccsc1[Si](C)(C)C | 114 to 116 °C
58 | Cc1c(NC(=O)c2ccc(OC[C@H]3CCCO3)cc2)ccc2cc(CNCC(C)(C)C)cnc12 | 110 to 111 °C
59 | Nc1nc2ccccc2c2c1ncn2Cc1ccccc1 | 257 to 259 °C
60 | Nc1c(F)c(F)nc(F)c1Cl | 118 to 120 °C
61 | CCCCc1nc2ccn(Cc3ccccc3)c(=O)c2n1Cc1ccc(-c2ccccc2-c2nnn[nH]2)cc1 | 130 °C
62 | O=c1c2ccccc2oc2cc(O)ccc12 | 242 °C
63 | COC(=O)c1c(SC)nn(-c2c(Cl)cc(Cl)cc2Cl)c1N | 160 to 162 °C
64 | COc1cc2c(cn1)C(=O)N(C(C)C)C2=O | 150 to 152 °C
65 | COc1ccc(Cn2c(C)cc3cn[nH]c(=O)c32)cc1 | 212 to 213 °C
66 | CNc1c(N)c(C)nn1C | 87 °C
67 | O=C1CCC(O)(c2ccccc2Cc2ccccc2)CC1 | 138 to 140 °C
68 | C#CCOCC(CC)(OC)c1cccc(OCc2ccc3ccccc3c2)c1 (configuration not stated) | 54 °C
69 | COc1ccc2cc3c(Cl)c(C#N)cnc3cc2c1 | 258 to 260 °C
70 | COc1ccc(C(=O)n2c(C)c(Cc3cc(=O)n(C4CCCCC4)[nH]3)c3cc(OC)ccc32)cc1 | 88 to 90 °C
71 | O=C(COc1cc(-c2ccccc2)nc2ccccc12)N1CCCC1 | 135 °C
72 | CCCCCCC(=N)NC(=S)Nc1ccc(C)cc1Cl | 78 to 80 °C
